# Assay: Phase 1 study: pharmacokinetic analysis of plasma (LC-MS/MS)
# Format: in vivo, patients
# Conditions: in vivo
# Protocol: Pharmacokinetic analysis: Whole-blood samples for plasma were collected at prescheduled time points for pharmacokinetic (PK) analysis. Plasma levels of erlotinib were determined using a validated liquid chromatography-tandem mass spectrometry assay. […] MS detection was using an AB SCIEX API 4000 triple quadrupole mass spectrometer operating in positive ion electrospray ionization (ESI) mode. Standard PK parameters were calculated using a noncompartmental method (WiNNonlin, Pharsight).
compound,measurement,value
C#Cc1cccc(Nc2ncnc3cc(OCCOC)c(OCCO)cc23)c1 [OSI-420],dose-dependence of metabolite with increasing pulse doses of erlotinib,no significant dose-dependence

# From US11833149B2, “Pulse dosing regimen and methods of treatment” (OSI Pharmaceuticals, LLC, priority 2016, dated 2023)
